One assay deals with T1, CDK5/p35 (Homo sapiens, UniProt Q00535).
T1 construct: purchased Invitrogen PV3000
Put plainly: Z'-LYTE kinase assay CDK5/p35. It counts as biochemical. As to conditions: read-out: Kinase inhibition, IC50 CDK5/p35. The procedure, abridged: (§1)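 Recombinant human kinases were run in a Z′-LYTE FRET assay. CDK1/cyclinB and CDK5/p35 were each used at 0.8 ng/reaction with Ser/Thr 12 peptide. Reactions ran 1 h at room temperature in HEPES pH 7.5 with 20 μM ATP, followed by 1 h development. IC50 came from sigmoid fits.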

Another assay has as its target T2, Aurora A (Homo sapiens, UniProt O14965).
T2 construct: purchased Invitrogen PV3612
T2 sequence (O14965 1-403): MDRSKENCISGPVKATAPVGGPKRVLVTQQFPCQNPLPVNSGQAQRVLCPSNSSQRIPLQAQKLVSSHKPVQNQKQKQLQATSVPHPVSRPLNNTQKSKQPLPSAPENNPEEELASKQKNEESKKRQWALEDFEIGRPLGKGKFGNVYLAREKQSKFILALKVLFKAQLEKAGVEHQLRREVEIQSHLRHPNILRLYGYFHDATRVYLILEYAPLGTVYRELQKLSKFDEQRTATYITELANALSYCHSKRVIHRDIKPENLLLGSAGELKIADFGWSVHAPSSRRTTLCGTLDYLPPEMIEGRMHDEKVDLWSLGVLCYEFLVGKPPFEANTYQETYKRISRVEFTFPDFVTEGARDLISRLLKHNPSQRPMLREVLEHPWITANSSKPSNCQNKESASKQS
Put plainly: Z'-LYTE kinase assay Aurora A. It counts as biochemical. As to conditions: read-out: Kinase inhibition, IC50 Aurora A. The procedure, abridged: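 Aurora A inhibition was measured by Z′-LYTE™. After a one-hour kinase reaction at room temperature, development buffer was added for another hour, then stop buffer. A VICTOR-3 reader recorded the 445 nm/520 nm emission ratio with excitation at 400 nm. Phosphorylation was derived from this ratio, and IC50 was obtained by sigmoid fitting in Origin 6.0.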

The subject of the next assay is H460-luc. Put plainly: 72 h MTT cytotoxicity assay H460-luc. The conditions noted are these: Homo sapiens, NCI-H460-Luc; H460-luc, 72 hrs; read-out: Cytotoxicity, MTT 72 hrs, IC50 H460-luc. It counts as cell-based. The procedure, abridged:
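Overnight-attached cells (4000 per well) are treated for 72 hrs at 37° C with halving compound concentrations in duplicate. MTT is then given 4 hr at 37° C, formazan dissolved in DMSO and read at 562 nm to fit IC50.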
(In general: Formazan colour is commonly taken as a measure of viable cells.)

In the next assay the target is Aurora B (Homo sapiens, UniProt Q96GD4). Put plainly: Kinase assay Aurora B (Table I). As to conditions: read-out: Kinase inhibition, IC50 Aurora B. It counts as biochemical.
For a further assay, the target named is T3, CDK1/cyclinB (Homo sapiens, UniProt P06493).
T3 construct: purchased Invitrogen PV3292
Put plainly: Z'-LYTE kinase assay CDK1/cyclinB. It counts as biochemical. The conditions noted are these: read-out: Kinase inhibition, IC50 CDK1B. The procedure, abridged: as §1

The target in another assay is T4, CDK2/cyclinA (Homo sapiens, UniProt P24941).
T4 construct: purchased Invitrogen PV3267
The assay is described as follows: Z'-LYTE kinase assay CDK2/cyclinA. The conditions noted are these: read-out: Kinase inhibition, IC50 CDK2A. The assay is classed as biochemical. The procedure, abridged:
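This Z′-LYTE™ fluorescence assay measured inhibition of human CDK2/cyclinA. After the 1 hr kinase reaction, development buffer was added for another hour at room temperature, then stop buffer. The 445 nm/520 nm emission ratio, excited at 400 nm, was read on a VICTOR-3 Multilabel Reader and converted to phosphorylation. Compounds were prepared as 10 mM DMSO stocks.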

A value given as a limit tells only on which side of the number the result lay.

T3 sequence (P06493 whole entry): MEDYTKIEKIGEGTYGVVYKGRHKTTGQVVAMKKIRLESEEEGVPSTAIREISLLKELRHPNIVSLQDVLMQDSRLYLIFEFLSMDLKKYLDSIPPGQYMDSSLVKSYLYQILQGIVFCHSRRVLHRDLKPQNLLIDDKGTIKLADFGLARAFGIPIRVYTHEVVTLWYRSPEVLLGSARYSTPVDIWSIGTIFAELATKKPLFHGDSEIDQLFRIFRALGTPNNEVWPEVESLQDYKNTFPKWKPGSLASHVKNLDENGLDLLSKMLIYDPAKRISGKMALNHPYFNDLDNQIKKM
T3 sequence (P14635 whole entry partner): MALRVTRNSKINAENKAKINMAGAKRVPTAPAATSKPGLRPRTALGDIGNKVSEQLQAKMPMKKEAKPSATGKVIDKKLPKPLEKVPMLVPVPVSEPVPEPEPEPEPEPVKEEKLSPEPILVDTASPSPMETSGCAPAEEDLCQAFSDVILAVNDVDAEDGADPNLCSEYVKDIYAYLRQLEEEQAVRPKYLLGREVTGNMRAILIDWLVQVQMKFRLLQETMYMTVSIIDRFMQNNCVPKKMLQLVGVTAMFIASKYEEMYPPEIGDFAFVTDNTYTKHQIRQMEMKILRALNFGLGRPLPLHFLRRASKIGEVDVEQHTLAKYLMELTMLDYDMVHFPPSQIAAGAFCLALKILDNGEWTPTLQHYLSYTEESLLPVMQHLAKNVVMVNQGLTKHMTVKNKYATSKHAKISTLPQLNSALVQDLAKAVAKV
Sequence of Aurora B (Q96GD4 whole entry): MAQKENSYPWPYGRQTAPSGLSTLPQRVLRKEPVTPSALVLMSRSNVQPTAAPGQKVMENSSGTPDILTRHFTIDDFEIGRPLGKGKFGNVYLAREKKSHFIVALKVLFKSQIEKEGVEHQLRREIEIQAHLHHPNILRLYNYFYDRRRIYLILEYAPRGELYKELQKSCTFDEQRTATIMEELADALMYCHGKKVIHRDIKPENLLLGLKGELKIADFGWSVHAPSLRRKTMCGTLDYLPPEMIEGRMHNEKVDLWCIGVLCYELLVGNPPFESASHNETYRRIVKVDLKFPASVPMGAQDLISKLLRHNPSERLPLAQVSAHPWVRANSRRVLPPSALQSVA
T1 sequence (Q00535 whole entry): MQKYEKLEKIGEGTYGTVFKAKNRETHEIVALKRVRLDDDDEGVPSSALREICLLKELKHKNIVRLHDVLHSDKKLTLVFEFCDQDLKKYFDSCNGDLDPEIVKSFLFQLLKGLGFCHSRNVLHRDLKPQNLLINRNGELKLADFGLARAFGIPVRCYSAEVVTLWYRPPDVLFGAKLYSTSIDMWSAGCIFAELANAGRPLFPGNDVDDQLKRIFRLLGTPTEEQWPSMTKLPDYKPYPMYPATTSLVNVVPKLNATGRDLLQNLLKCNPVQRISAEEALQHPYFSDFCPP
T1 sequence (Q15078 whole entry partner): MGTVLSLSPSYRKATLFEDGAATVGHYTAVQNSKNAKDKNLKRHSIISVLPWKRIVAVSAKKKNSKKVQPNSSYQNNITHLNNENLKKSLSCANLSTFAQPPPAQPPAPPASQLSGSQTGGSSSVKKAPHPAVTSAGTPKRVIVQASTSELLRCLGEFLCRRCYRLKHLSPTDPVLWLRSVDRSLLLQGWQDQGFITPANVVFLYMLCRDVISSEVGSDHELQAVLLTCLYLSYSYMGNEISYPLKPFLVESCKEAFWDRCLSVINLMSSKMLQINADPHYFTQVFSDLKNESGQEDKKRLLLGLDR

On to `CCCn1cc(-c2ccnc(Nc3ccc(O)cc3)n2)c2cccnc21` [Compound 15, 4-(4-(1-Propyl-1H-pyrrolo[2,3-b]pyridin-3-yl)pyrimidin-2-ylamino)phenol], for which the IC50 stood at 2240 nM at CDK5/p35; 210 nM at Aurora A; 4980 nM in the assay on H460-luc; 670 nM at Aurora B; 1670 nM on CDK1/cyclinB; 28 nM at CDK2/cyclinA.

In the case of `CCCn1cc(-c2ccnc(Nc3cccc(S(N)(=O)=O)c3)n2)c2ccnc(Cl)c21` [Compound 96, 3-(4-(7-chloro-1-propyl-1H-pyrrolo[2,3-c]pyridin-3-yl)pyrimidin-2-ylamino)benzenesulfonamide], the IC50 is 20 nM at CDK5/p35; 800 nM on Aurora A; 260 nM in the assay on H460-luc; more than 10000 nM at Aurora B; less than 0.1 nM on CDK1/cyclinB; less than 0.1 nM on CDK2/cyclinA.
